US20090156577A1, “7-AMINO ALKYLIDENYL-HETEROCYCLIC QUINOLONES AND NAPHTHYRIDONES” (priority 2004, published 2009)
Converted amounts (≈) assume the structure as drawn. Read-outs that look alike come from different tables or passages of the source.

Test system: pathogenic bacteria
Assay: MIC by microdilution broth method (NCCLS M7-A4), in vitro antibacterial activity
Format: cell-based
Summary of the method: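 MIC read after 35 °C incubation for 16–20 h relative to drug-free growth wells. Cation-adjusted Mueller-Hinton broth with two-fold compound dilutions, organisms at roughly 5×10^4 CFU/well final. Method follows NCCLS document M7-A4.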

[1] = Staphylococcus aureus, Organism A: Staphylococcus aureus OC4172, read-out: MIC
[2] = Streptococcus pneumoniae, ATCC49619, Organism E: Streptococcus pneumoniae ATCC 49619, read-out: MIC
[3] = Streptococcus pneumoniae, Organism B: fluoroquinolone-resistant clinical isolate of Streptococcus pneumoniae (QRDR amino acid substitutions)
[4] = Streptococcus pneumoniae, Organism C: fluoroquinolone-resistant clinical isolate of Streptococcus pneumoniae (QRDR amino acid substitutions)
[5] = Streptococcus pneumoniae, Organism D: fluoroquinolone-resistant clinical isolate of Streptococcus pneumoniae (QRDR amino acid substitutions)

C[C@H]1COc2c(N3CCC/C(=C(\Cl)CN)CC3)c(F)cc3c(=O)c(C(=O)O)cn1c23 [Compound 373, (3S)-9-[(E)-4-(2-Amino-1-chloro-ethylidene)-azepan-1-yl]-8-fluoro-3-methyl-6-oxo-2,3-dihydro-6H-1-oxa-3a-aza-phenalene-5-carboxylic Acid]
MIC [1]: 0.06 µg/mL (≈ 0.138 µM)
MIC [2]: 0.12 µg/mL (≈ 0.275 µM)
MIC [3]: 0.5 µg/mL (≈ 1.15 µM)
MIC [4]: 2 µg/mL (≈ 4.59 µM)
MIC [5]: 1 µg/mL (≈ 2.29 µM)

NC/C(F)=C1\CCCN(c2nc3c(cc2F)c(=O)c(C(=O)O)cn3C2CC2)C1 [Compound 374, (Z)-7-[3-(2-Amino-1-fluoro-ethylidene)-piperidin-1-yl]-1-cyclopropyl-6-fluoro-4-oxo-1,4-dihydro-[1,8]naphthyridine-3-carboxylic acid]
MIC [1]: 0.06 µg/mL (≈ 0.154 µM)
MIC [2]: 0.5 µg/mL (≈ 1.28 µM)
MIC [3]: 2 µg/mL (≈ 5.12 µM)
MIC [4]: 16 µg/mL (≈ 41 µM)
MIC [5]: 4 µg/mL (≈ 10.2 µM)

NC/C=C1/CCCN(c2nc3c(cc2F)c(=O)c(C(=O)O)cn3C2CC2)C1 [Compound 375, (Z)-7-[3-(2-Amino-ethylidene)-piperidin-1-yl]-1-cyclopropyl-6-fluoro-4-oxo-1,4-dihydro-[1,8]naphthyridine-3-carboxylic acid]
MIC [1]: 0.12 µg/mL (≈ 0.322 µM)
MIC [2]: 8 µg/mL (≈ 21.5 µM)
MIC [3]: > 16 µg/mL
MIC [4]: > 16 µg/mL
MIC [5]: > 16 µg/mL

NC/C=C1\CCCN(c2nc3c(cc2F)c(=O)c(C(=O)O)cn3C2CC2)C1 [Compound 376, (E)-7-[3-(2-Amino-ethylidene)-piperidin-1-yl]-1-cyclopropyl-6-fluoro-4-oxo-1,4-dihydro-[1,8]naphthyridine-3-carboxylic acid]
MIC [1]: 0.25 µg/mL (≈ 0.671 µM)
MIC [2]: 1 µg/mL (≈ 2.69 µM)
MIC [4]: > 16 µg/mL
MIC [5]: > 16 µg/mL

C/C(CN)=C1/CCCN(c2nc3c(cc2F)c(=O)c(C(=O)O)cn3C2CC2)C1 [Compound 377, (E)-7-[3-(2-Amino-1-methyl-ethylidene)-piperidin-1-yl]-1-cyclopropyl-6-fluoro-4-oxo-1,4-dihydro-[1,8]naphthyridine-3-carboxylic acid]
MIC [1]: 0.5 µg/mL (≈ 1.29 µM)
MIC [2]: 4 µg/mL (≈ 10.4 µM)
MIC [3]: 16 µg/mL (≈ 41.4 µM)
MIC [4]: 8 µg/mL (≈ 20.7 µM)
MIC [5]: > 16 µg/mL

NC/C(Cl)=C1\CCCN(c2nc3c(cc2F)c(=O)c(C(=O)O)cn3C2CC2)CC1 [Compound 378, (Z)-7-[4-(2-Amino-1-chloro-ethylidene)-azepan-1-yl]-1-cyclopropyl-6-fluoro-4-oxo-1,4-dihydro-[1,8]naphthyridine-3-carboxylic acid]
MIC [1]: 0.25 µg/mL (≈ 0.594 µM)
MIC [2]: 1 µg/mL (≈ 2.38 µM)
MIC [4]: 4 µg/mL (≈ 9.5 µM)
MIC [5]: 16 µg/mL (≈ 38 µM)

NC/C(Cl)=C1/CCCN(c2nc3c(cc2F)c(=O)c(C(=O)O)cn3C2CC2)CC1 [Compound 379, (E)-7-[4-(2-Amino-1-chloro-ethylidene)-azepan-1-yl]-1-cyclopropyl-6-fluoro-4-oxo-1,4-dihydro-[1,8]naphthyridine-3-carboxylic acid]
MIC [1]: 0.25 µg/mL (≈ 0.594 µM)
MIC [2]: 2 µg/mL (≈ 4.75 µM)
MIC [3]: 1 µg/mL (≈ 2.38 µM)
MIC [4]: 8 µg/mL (≈ 19 µM)
MIC [5]: 16 µg/mL (≈ 38 µM)

C/C(CN)=C1\CCCN(c2nc3c(cc2F)c(=O)c(C(=O)O)cn3-c2ccc(F)cc2F)C1 [Compound 380, (Z)-7-[3-(2-Amino-1-methyl-ethylidene)-piperidin-1-yl]-1-(2,4-difluoro-phenyl)-6-fluoro-4-oxo-1,4-dihydro-[1,8]naphthyridine-3-carboxylic acid]
MIC [1]: 0.12 µg/mL (≈ 0.262 µM)
MIC [2]: 0.5 µg/mL (≈ 1.09 µM)
MIC [3]: 8 µg/mL (≈ 17.5 µM)
MIC [4]: 8 µg/mL (≈ 17.5 µM)
MIC [5]: 4 µg/mL (≈ 8.73 µM)

C/C(CN)=C1/CCCN(c2nc3c(cc2F)c(=O)c(C(=O)O)cn3-c2ccc(F)cc2F)C1 [Compound 381, (E)-7-[3-(2-Amino-1-methyl-ethylidene)-piperidin-1-yl]-1-(2,4-difluoro-phenyl)-6-fluoro-4-oxo-1,4-dihydro-[1,8]naphthyridine-3-carboxylic acid]
MIC [1]: 0.5 µg/mL (≈ 1.09 µM)
MIC [2]: 4 µg/mL (≈ 8.73 µM)
MIC [3]: 4 µg/mL (≈ 8.73 µM)
MIC [4]: > 16 µg/mL
MIC [5]: > 16 µg/mL

NC/C(F)=C1\CCCN(c2cc3c(cc2F)c(=O)c(C(=O)O)cn3C2CC2)C1 [Compound 382, (Z)-7-[3-(2-Amino-1-fluoro-ethylidene)-piperidin-1-yl]-1-cyclopropyl-6-fluoro-4-oxo-1,4-dihydro-quinoline-3-carboxylic acid]
MIC [1]: 0.5 µg/mL (≈ 1.28 µM)
MIC [2]: 2 µg/mL (≈ 5.14 µM)
MIC [3]: 8 µg/mL (≈ 20.5 µM)
MIC [4]: > 16 µg/mL
MIC [5]: 16 µg/mL (≈ 41.1 µM)

NC/C=C1/CCCN(c2cc3c(cc2F)c(=O)c(C(=O)O)cn3C2CC2)C1 [Compound 383, (Z)-7-[3-(2-Amino-ethylidene)-piperidin-1-yl]-1-cyclopropyl-6-fluoro-4-oxo-1,4-dihydro-quinoline-3-carboxylic acid]
MIC [1]: 0.12 µg/mL (≈ 0.323 µM)
MIC [2]: 1 µg/mL (≈ 2.69 µM)
MIC [3]: 8 µg/mL (≈ 21.5 µM)
MIC [4]: > 16 µg/mL
MIC [5]: > 16 µg/mL

NC/C=C1\CCCN(c2cc3c(cc2F)c(=O)c(C(=O)O)cn3C2CC2)C1 [Compound 384, (E)-7-[3-(2-Amino-ethylidene)-piperidin-1-yl]-1-cyclopropyl-6-fluoro-4-oxo-1,4-dihydro-quinoline-3-carboxylic acid]
MIC [1]: 1 µg/mL (≈ 2.69 µM)
MIC [2]: 8 µg/mL (≈ 21.5 µM)
MIC [4]: > 16 µg/mL
MIC [5]: > 16 µg/mL

C/C(CN)=C1/CCCN(c2cc3c(cc2F)c(=O)c(C(=O)O)cn3C2CC2)C1 [Compound 385, (E)-7-[3-(2-Amino-1-methyl-ethylidene)-piperidin-1-yl]-1-cyclopropyl-6-fluoro-4-oxo-1,4-dihydro-quinoline-3-carboxylic acid]
MIC [1]: 1 µg/mL (≈ 2.59 µM)
MIC [2]: 8 µg/mL (≈ 20.8 µM)
MIC [3]: > 16 µg/mL
MIC [4]: > 16 µg/mL
MIC [5]: > 16 µg/mL

NC/C(Cl)=C1\CCCN(c2cc3c(cc2F)c(=O)c(C(=O)O)cn3C2CC2)CC1 [Compound 386, (Z)-7-[4-(2-Amino-1-chloro-ethylidene)-azepan-1-yl]-1-cyclopropyl-6-fluoro-4-oxo-1,4-dihydro-quinoline-3-carboxylic acid]
MIC [1]: 0.25 µg/mL (≈ 0.595 µM)
MIC [2]: 2 µg/mL (≈ 4.76 µM)
MIC [4]: 8 µg/mL (≈ 19.1 µM)
MIC [5]: 16 µg/mL (≈ 38.1 µM)

NC/C(Cl)=C1/CCCN(c2cc3c(cc2F)c(=O)c(C(=O)O)cn3C2CC2)CC1 [Compound 387, (E)-7-[4-(2-Amino-1-chloro-ethylidene)-azepan-1-yl]-1-cyclopropyl-6-fluoro-4-oxo-1,4-dihydro-quinoline-3-carboxylic acid]
MIC [1]: 0.5 µg/mL (≈ 1.19 µM)
MIC [2]: 2 µg/mL (≈ 4.76 µM)
MIC [3]: > 16 µg/mL
MIC [4]: 16 µg/mL (≈ 38.1 µM)
MIC [5]: 16 µg/mL (≈ 38.1 µM)

COc1c(N2CCC/C(=C(/F)CN)C2)c(F)cc2c(=O)c(C(=O)O)cn(C3CC3)c12 [Compound 388, (Z)-7-[3-(2-Amino-1-fluoro-ethylidene)-piperidin-1-yl]-1-cyclopropyl-6-fluoro-8-methoxy-4-oxo-1,4-dihydro-quinoline-3-carboxylic acid]
MIC [1]: ≤ 0.25 µg/mL
MIC [2]: 0.5 µg/mL (≈ 1.19 µM)
MIC [3]: 2 µg/mL (≈ 4.77 µM)
MIC [4]: 8 µg/mL (≈ 19.1 µM)
MIC [5]: 2 µg/mL (≈ 4.77 µM)

COc1c(N2CCC/C(=C/CN)C2)c(F)cc2c(=O)c(C(=O)O)cn(C3CC3)c12 [Compound 389, (Z)-7-[3-(2-Amino-ethylidene)-piperidin-1-yl]-1-cyclopropyl--6-fluoro-8-methoxy-4-oxo-1,4-dihydro-quinoline-3-carboxylic acid]
MIC [1]: ≤ 0.015 µg/mL
MIC [2]: 0.06 µg/mL (≈ 0.149 µM)
MIC [3]: 0.5 µg/mL (≈ 1.25 µM)
MIC [4]: 1 µg/mL (≈ 2.49 µM)
MIC [5]: 0.5 µg/mL (≈ 1.25 µM)
